In brackets after ≈: the same amount, converted by molar mass. Read-outs that look alike come from different tables or passages of the source. Marks after values point to notes of the source that are not given here.
Experiments:
MRSA1094 = assay: MIC against clinically relevant strains; type: cell-based; settings: Staphylococcus aureus; methicillin resistant S. aureus strain
Description: (§1) The following methods were used to characterize representative compounds. Minimal Inhibitory Concentration (MIC) determinations. MIC values were determined in 96 well plates, with bacterial growth monitored at OD 600 nm in 200µl following an initial bacterial seeding at approximately 1x10^5 colony forming units (CFU)/ml. Each drug is evaluated at five concentrations, with five data points at each dilution. MIC values (µg/ml) were determined against actively growing cultures in Heart-Brain Infusion (HBI) medium. Cell growth in cultures supplemented with a test compound was calculated as a percent of control at OD 600 nm after 16 to 18 hours at 37°C. This plate format conserves test compound and provides precise, quantitative data with low standard deviation determinations. Polymerase IIIC (Pol IIIC) assay. DNA polymerase activity (or inhibition thereof) was measured in a 96-well plate format. B. subtilis Pol IIIC was isolated as described by Hammond and Brown (Protein Expr. Purif., 3: 65-70 (1992)). Each 25 µl assay contained 30 mM Tris, pH 7.5, 10 mM magnesium acetate, 4 mM dithiothreitol, 20% glycerol, with 25 µM dATP, dCTP, dGTP and 10 µM dTTP (^3H-labelled at 1.44 Ci/mmole) and 0.4 mg/ml activated calf thymus DNA as substrates, as described previously (see Barnes et al, op. cit). Assays were initiated by the addition of 0.025 to 0.06 units of enzyme 1 unit is the amount required to incorporate 250 pmoles of [^3H] dTMP in a standard assay), incubated for 10 minutes at 30°C and terminated by the addition of 200 µl of cold 10% trichloroacetic acid (TCA),10 mM sodium pyrophosphate. Precipitated labeled DNA was collected on glass fiber filter plates, washed, dried, and counted in a liquid scintillation counter. Determination of Ki values. DNA polymerase activity was measured in a 96-well plate format in the absence of dGTP or dATP, depending on the structure of the test compound. Each 25 µl assay contained 30 mM Tris, pH 7.5, 10 mM magnesium acetate, 4 mM dithiothreitol, 20% glycerol, with 25 µM dATP, dCTP, and 10 µM dTTP (^3H-labelled at 1.44 Ci/mmole) and 0.4 mg/ml activated calf thymus DNA as substrates, as described previously. To each well were added 2 µl of compound solution to give final concentrations ranging from 20 - 0.027 µg/ml in the assay. Assays were initiated by the addition of 0.025 to 0.06 units of enzyme (1 unit is the amount required to incorporate 250 pmoles of [^3H] dTMP in a standard assay), incubated for 10 minutes at 30 °C and terminated by the addition of 200 µl of cold 10% trichloroacetic acid, 10 mM sodium pyrophosphate. Precipitated labeled DNA was collected on glass fiber filter plates, washed, dried, and counted in a liquid scintillation counter. Ki is the concentration of test compound that reduces the control polymerase IIIC activity by 50 percent.
(§2) Compounds were also tested for antibacterial activity against certain clinically relevant strains, e.g., methicillin sensitive (MSSA) and methicillin resistant (MRSA) strains of Staphylococcus aureus.

MRSA 1123 = assay: MIC against clinically relevant strains; type: cell-based; settings: Staphylococcus aureus, methicillin resistant S. aureus strain
Description: as §1, §2

MSSA108 = assay: MIC against clinically relevant strains; type: cell-based; settings: Staphylococcus aureus; methicillin sensitive S. aureus strain
Description: as §1, §2

MRSA1132 = assay: MIC against clinically relevant strains; type: cell-based; settings: Staphylococcus aureus; methicillin resistant S. aureus strain
Description: as §1, §2

S. aureus = assay: Minimal Inhibitory Concentration (MIC) determination, 96 well plates; type: cell-based, Staphylococcus aureus; settings: for MIC: Staphylococcus aureus, read-out: MIC (µg/ml) S. aureus
Method in brief: (§3)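 Cultures seeded at approximately 1x10^5 CFU/ml in Heart-Brain Infusion medium were exposed to five compound concentrations, five data points each, for 16 to 18 hours at 37°C. Growth at OD 600 nm was expressed as percent of control, and MIC values are given in µg/ml.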

S.aureus (Smith) = assay: as above; type: cell-based, Staphylococcus aureus; settings: for MIC: Staphylococcus aureus
Method in brief: (§4)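 Broth growth in Heart-Brain Infusion medium, seeded at about 1x10^5 CFU/ml, 16 to 18 hours at 37°C. Growth read at OD 600 nm as percent of untreated control; five concentrations per drug, five data points each, MIC reported in µg/ml.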

B. subtilis Pol IIIC = target: T1, B. subtilis Pol IIIC (Bacillus subtilis, UniProt P13267); assay: Polymerase IIIC (Pol IIIC) assay, determination of Ki values; type: biochemical; settings: assay in absence of dGTP or dATP, Ki is the concentration that reduces control polymerase IIIC activity by 50 percent
T1 construct: made in house
Method in brief: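 Isolated B. subtilis Pol IIIC (0.025–0.06 units) run 10 min at 30°C in 30 mM Tris pH 7.5, 10 mM Mg acetate, 4 mM DTT, 20% glycerol. Substrates were 0.4 mg/ml activated calf thymus DNA, 25 µM dNTPs and 10 µM [3H]dTTP, with dGTP or dATP omitted per compound structure.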

E. fecium = assay: Minimal Inhibitory Concentration (MIC) determination, 96 well plates; type: cell-based, Enterococcus fecium; settings: HBI medium, 16 to 18 hours at 37°C; for MIC: Enterococcus, read-out: MIC (µg/ml) E. fecium
Method in brief: as §4

E. fecalis = assay: as above; type: cell-based, Enterococcus fecalis; settings: HBI medium, 16 to 18 hours at 37°C; for MIC: Enterococcus, read-out: MIC (µg/ml) E. fecalis
Method in brief: as §4

E. coli = assay: as above; type: cell-based, Escherichia coli; settings: HBI medium, 16 to 18 hours at 37°C; for MIC: Escherichia coli, read-out: MIC (µg/ml) E. coli
Method in brief: as §3

B. subtilis = assay: as above; type: cell-based, Bacillus subtilis; settings: HBI medium, 16 to 18 hours at 37°C; for MIC: Bacillus subtilis, read-out: MIC (µg/ml) B. subtilis
Method in brief: as §4

VRE 700802 = assay: In vivo efficacy of Compound 70 in mouse models; set-up: species or system Enterococcus faecalis; settings: mice, 3x10^8 CFU/mouse + 5% Mucin; positive control, 100mg/kg, t=0
Description: Swiss Webster mice, ca. 20 g each, were infected with Staphylococcus aureus (Smith strain) by the intraperitoneal route. Test compounds (2, 4, 5, 6, 7, 8, 10, 12) were dissolved in 10% dimethylsulfoxide in peanut oil to a concentration of 2 mg/ml. Vancomycin was used as positive control drug (i.e., protection from lethal infection). Fifteen minutes after infection, test compounds, vancomycin, or vehicle alone were given intraperitoneally to groups of five mice each. Animals were monitored for three days, and the number of mice surviving was tabulated for each treatment.
Using the same basic procedure as described above, the in vivo efficacy of Compound 70 was also evaluated at various doses in mice infected with S. aureaus (Smith), MRSA 1094, Enterococcus faecalis, or vancomycin-resistant Enterococcus faecalis strain VRE 700802. […] Negative controls were mice infected that received no treatment. Mucin was employed as an adjuvant to facilitate bacterial infection in mice, where indicated.

[1] = HBI medium, 16 to 18 hours at 37°C
[2] = HBI medium, 16 to 18 hours at 37°C, read-out: MIC (µg/ml) S.aureus (Smith)

T1 sequence (P13267 whole entry): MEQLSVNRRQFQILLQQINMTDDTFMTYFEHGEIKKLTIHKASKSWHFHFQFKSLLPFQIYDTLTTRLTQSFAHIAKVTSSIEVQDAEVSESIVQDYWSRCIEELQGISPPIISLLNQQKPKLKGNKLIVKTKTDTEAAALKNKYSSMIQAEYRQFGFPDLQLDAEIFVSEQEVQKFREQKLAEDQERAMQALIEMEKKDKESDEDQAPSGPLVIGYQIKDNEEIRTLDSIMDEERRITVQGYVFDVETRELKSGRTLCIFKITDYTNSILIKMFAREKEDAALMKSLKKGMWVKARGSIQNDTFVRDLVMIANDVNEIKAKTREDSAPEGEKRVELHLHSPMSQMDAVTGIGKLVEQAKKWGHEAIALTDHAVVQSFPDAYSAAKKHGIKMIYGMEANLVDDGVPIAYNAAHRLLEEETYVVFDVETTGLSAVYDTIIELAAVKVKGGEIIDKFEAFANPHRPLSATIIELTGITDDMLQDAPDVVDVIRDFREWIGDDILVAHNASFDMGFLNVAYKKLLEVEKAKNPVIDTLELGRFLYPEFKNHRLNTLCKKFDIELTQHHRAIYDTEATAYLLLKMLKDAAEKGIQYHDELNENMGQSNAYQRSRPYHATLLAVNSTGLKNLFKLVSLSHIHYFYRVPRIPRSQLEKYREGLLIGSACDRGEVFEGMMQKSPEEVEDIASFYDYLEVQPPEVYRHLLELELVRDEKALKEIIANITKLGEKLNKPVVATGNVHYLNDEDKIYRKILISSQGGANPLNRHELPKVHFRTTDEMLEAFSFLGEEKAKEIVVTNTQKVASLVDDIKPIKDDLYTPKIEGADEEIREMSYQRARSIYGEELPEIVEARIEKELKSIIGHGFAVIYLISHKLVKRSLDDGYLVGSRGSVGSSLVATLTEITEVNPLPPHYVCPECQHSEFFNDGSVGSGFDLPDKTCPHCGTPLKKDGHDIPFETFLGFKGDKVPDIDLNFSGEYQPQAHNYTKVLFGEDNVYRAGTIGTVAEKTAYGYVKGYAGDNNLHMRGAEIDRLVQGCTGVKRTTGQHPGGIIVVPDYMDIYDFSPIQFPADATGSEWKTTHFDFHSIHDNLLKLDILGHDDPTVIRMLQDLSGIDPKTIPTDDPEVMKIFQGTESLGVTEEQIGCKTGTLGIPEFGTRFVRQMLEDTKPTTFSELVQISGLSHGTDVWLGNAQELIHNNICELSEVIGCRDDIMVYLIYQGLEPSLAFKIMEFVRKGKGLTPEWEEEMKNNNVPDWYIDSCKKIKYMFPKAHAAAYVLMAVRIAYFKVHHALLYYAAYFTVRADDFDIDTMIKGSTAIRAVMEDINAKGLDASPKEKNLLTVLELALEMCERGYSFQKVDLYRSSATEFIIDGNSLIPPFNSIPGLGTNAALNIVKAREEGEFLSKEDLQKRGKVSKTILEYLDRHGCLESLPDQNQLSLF

Row | Molecule | MIC (S. aureus; [1]) | MIC (S.aureus (Smith); [2]) | Ki (B. subtilis Pol IIIC; Ki (µM) Pol IIIC) | MIC (E. fecium) | MIC (E. fecalis) | MIC (E. coli) | MIC (B. subtilis) | also measured
1 | CCc1cc(Nc2cc(=O)n(CCCCN3CCN(c4cc5c(cc4F)c(=O)c(C(=O)O)cn5-c4ccc(F)cc4F)CC3)c(=O)[nH]2)ccc1C [Compound 12, 3-{4-[1-(1-{2,4-difluorophenyl}-3-carboxy-4-oxo-6-fluoro-7-quinolyl)-4-piperazinyl]butyl}-6-(3-ethyl-4-methylanilino)uracil] | 0.313 µg/mL (≈ 0.445 µM) | 0.313 µg/mL (≈ 0.445 µM) | 0.018 µM | 5 µg/mL (≈ 7.12 µM) | 2.5 µg/mL (≈ 3.56 µM) | 2.5 µg/mL (≈ 3.56 µM) | 0.156 µg/mL (≈ 0.222 µM) | MIC (MRSA1094): 0.625 µg/mL (≈ 0.889 µM); MIC (MRSA 1123): 1.25 µg/mL (≈ 1.78 µM); MIC (MSSA108): 0.625 µg/mL (≈ 0.889 µM); MIC (MRSA1132): 0.625 µg/mL (≈ 0.889 µM); MIC (S. aureus; table of MSSA/MRSA strains): 0.313 µg/mL (≈ 0.445 µM); MIC (S.aureus (Smith); table of MSSA/MRSA strains, read-out: MIC (µg/ml) S. aureus (Smith)): 0.313 µg/mL (≈ 0.445 µM)
2 | O=C(O)c1cn(C2CC2)c2cc(N3CCNCC3)c(F)cc2c1=O [cflxn, ciprofloxacin, reference compound] | 0.156 µg/mL (≈ 0.471 µM) | 0.078 µg/mL (≈ 0.235 µM) | – | – | – | 0.078 µg/mL (≈ 0.235 µM) | 0.156 µg/mL (≈ 0.471 µM) | % Survival at 72 hours (VRE 700802): ciprofloxacin (100mg/kg, t=0) 90% (9/10)**; Ki (µM) Pol IIIC (B. subtilis Pol IIIC): inactive
3 | CCc1cc(Nc2cc(=O)n(CCCCN3CCN(c4c(F)cc5c(=O)c(C(=O)O)cn(C6CC6)c5c4F)C[C@H]3C)c(=O)[nH]2)ccc1C [Compound 72, (R)-3-{4-[1-(1-cyclopropyl-3-carboxy-4-oxo-6,8-difluoro-7-quinolyl)-3-methyl-4-piperazinyl]butyl}-6-(3-ethyl-4-methylanilino)uracil] | 0.625 µg/mL (≈ 0.943 µM) | 0.625 µg/mL (≈ 0.943 µM) | 0.004 µM | 1.25 µg/mL (≈ 1.89 µM) | 1.25 µg/mL (≈ 1.89 µM) | 20 µg/mL (≈ 30.2 µM) | 0.156 µg/mL (≈ 0.235 µM) | –
4 | Cc1ccc(Nc2cc(=O)n(CCCCN3CCN(c4cc5c(cc4F)c(=O)c(C(=O)O)cn5C4CC4)CC3)c(=O)[nH]2)cc1C [Compound 65, 3-{4-[1-(1-cyclopropyl-3-carboxy-4-oxo-6-fluoro-7-quinolyl)-4-piperazinyl]butyl}-6-(3,4-dimethylanilino)uracil] | 0.95 µg/mL (≈ 1.54 µM) | 0.46 µg/mL (≈ 0.746 µM) | 0.095 µM | 1.87 µg/mL (≈ 3.03 µM) | 1.87 µg/mL (≈ 3.03 µM) | 10 µg/mL (≈ 16.2 µM) | 0.23 µg/mL (≈ 0.373 µM) | –
5 | CCc1cc(Nc2cc(=O)n(CCCCCN3CCC4CN(c5cc6c(cc5F)c(=O)c(C(=O)O)cn6C5CC5)CC43)c(=O)[nH]2)ccc1C (centres unmarked) [Compound 81, 3-{5-[1-(1-cyclopropyl-3-carboxy-4-oxo-6-fluoro-7-quinolyl)-3-(1,3-diazabicyclooctyl)]pentyl}-6-(3-ethyl-4-methylanilino)uracil] | 5 µg/mL (≈ 7.45 µM) | 2.5 µg/mL (≈ 3.73 µM) | 0.04 µM | 12.5 µg/mL (≈ 18.6 µM) | 3.7 µg/mL (≈ 5.52 µM) | > 80 µg/mL | 1.25 µg/mL (≈ 1.86 µM) | –
6 | Cc1ccc(Nc2cc(=O)n(CCCCN3CCN(c4cc5c(cc4F)c(=O)c(C(=O)O)cn5C4CC4)C[C@@H]3C)c(=O)[nH]2)cc1C [Compound 97, (S)-3-{4-[1-(1-cyclopropyl-3-carboxy-4-oxo-6-fluoro-7-quinolyl)-3-methyl-4-piperazinyl]butyl}-6-(3,4-dimethylanilino)uracil] | 1.25 µg/mL (≈ 1.98 µM) | 0.625 µg/mL (≈ 0.991 µM) | 0.037 µM | 1.25 µg/mL (≈ 1.98 µM) | 0.625 µg/mL (≈ 0.991 µM) | 40 µg/mL (≈ 63.4 µM) | 0.235 µg/mL (≈ 0.373 µM) | –
7 | 3-{5-[1-(1-ethyl-3-carboxy-4-oxo-6,8-difluoro-7-quinolyl)-3-(1,3-diazabicyclononyl)]pentyl}-6-(3-ethyl-4-methylanilino)uracil [Compound 88] | – | – | – | – | – | – | – | MIC (µg/ml) S. aureus (S. aureus; [1]): 1.25 µg/mL; MIC (µg/ml) S.aureus (Smith) (S.aureus (Smith); [1]): 1.25 µg/mL; Ki (B. subtilis Pol IIIC; read-out: Ki (µM) Pol IIIC): 0.024 µM; MIC (µg/ml) E. fecium (E. fecium): 5 µg/mL; MIC (µg/ml) E. fecalis (E. fecalis): 2.5 µg/mL; MIC (µg/ml) E. coli (E. coli): >20 µg/mL; MIC (µg/ml) B. subtilis (B. subtilis): 0.625 µg/mL
8 | CC1CN(c2c(F)cc3c(=O)c(C(=O)O)cn(C4CC4)c3c2F)CCN1CCCCn1c(=O)cc(Nc2ccc3c(c2)CCC3)[nH]c1=O (centres unmarked) [Compound 92, 3-{4-[1-(1-cyclopropyl-3-carboxy-4-oxo-6,8-difluoro-7-quinolyl)-3-methyl-4-piperazinyl]butyl}-6-(5-indanylamino)uracil] | 0.313 µg/mL (≈ 0.474 µM) | 0.235 µg/mL (≈ 0.356 µM) | 0.016 µM | 0.937 µg/mL (≈ 1.42 µM) | 0.625 µg/mL (≈ 0.946 µM) | 2.5 µg/mL (≈ 3.78 µM) | 0.117 µg/mL (≈ 0.177 µM) | –
9 | CCc1cc(Nc2cc(=O)n(CCCCN3CCN(c4cc5c(cc4F)c(=O)c(C(=O)O)cn5CC)CC3)c(=O)[nH]2)ccc1C [Compound 1, 3-{4-[1-(1-ethyl-3-carboxy-4-oxo-6-fluoro-7-quinolyl)-4-piperazinyl]butyl}-6-(3-ethyl-4-methylanilino)uracil] | 0.625 µg/mL (≈ 1.01 µM) | 0.625 µg/mL (≈ 1.01 µM) | 0.024 µM | 1.25 µg/mL (≈ 2.02 µM) | 1.25 µg/mL (≈ 2.02 µM) | > 20 µg/mL | 0.156 µg/mL (≈ 0.252 µM) | –
